Measured values published in patent US20210274823A1, “NOVEL TRITERPENE-GLYCOSIDES AS SWEETENERS OR SWEETENER ENHANCER” (priority 2017, published 2021).

Test: Organoleptic test of the compounds of formula (I) against sucrose
Parameters: key to sweetness compared to sucrose: 3: sweeter than the control solution; 2: sweetness comparable with the control solution; 1: less sweet than the control solution but still sweet
Details: panel of 3-4 panelists; for sweetness compared to sucrose: test compound dissolved in water (Evian) at 400 ppm, control sucrose 20 g/l; for Comment (taste impression): test compound dissolved in water at 400 ppm
Description: The isolated pure compounds were dissolved in non-carbonated mineral water (“Evian”) in a concentration of 0.4 mg/ml (400 ppm). The sweet taste of each sample was compared by a panel of 3-4 panelists with a solution of sucrose in a concentration of 20 g/l.

SMILES	sweetness compared to sucrose	Comment (taste impression)
CC(C)=CCC[C@](C)(O[C@@H]1O[C@H](CO)[C@@H](O)[C@H](O)[C@H]1O)[C@H]1CC[C@]2(C)[C@@H]1[C@H](O)CC1[C@@]3(C)C[C@@H](O)[C@H](O[C@@H]4O[C@H](COC5OCC(O)C(O)C5O)[C@@H](O)[C@H](O)[C@H]4O[C@@H]4O[C@H](CO)[C@@H](O)[C@H](O)[C@H]4O)C(C)(C)C3CC[C@]12C (stereo partly drawn) [Compound H]	3	Slightly bitter
CC(C)(/C=C/C[C@](C)(O[C@@H]1O[C@H](CO[C@@H]2OC[C@@H](O)[C@H](O)[C@H]2O)[C@@H](O)[C@H](O)[C@H]1O)[C@H]1CC[C@]2(C)C1[C@H](O)CC1[C@@]3(C)C[C@@H](O)[C@H](O[C@@H]4O[C@H](CO)[C@@H](O)[C@H](O)[C@H]4O[C@@H]4O[C@H](CO)[C@@H](O)[C@H](O)[C@H]4O)C(C)(C)C3CC[C@]12C)OO (stereo partly drawn) [Compound G]	2	Slightly bitter
CC(C)=CCC[C@](C)(O[C@@H]1O[C@H](CO[C@@H]2OC[C@@H](O)[C@H](O)[C@H]2O)[C@@H](O)[C@H](O)[C@H]1O)[C@H]1CC[C@]2(C)[C@@H]1[C@H](O)CC1[C@@]3(C)C[C@@H](O)[C@H](O[C@@H]4O[C@H](CO)[C@@H](O)[C@H](O)[C@H]4O[C@@H]4O[C@H](CO)[C@@H](O)[C@H](O)[C@H]4O)C(C)(C)C3CC[C@]12C (stereo partly drawn) [Compound A]	2	Slightly hot
C=C(C)C(O)CC[C@](C)(O[C@@H]1O[C@H](CO[C@@H]2OC[C@@H](O)[C@H](O)[C@H]2O)[C@@H](O)[C@H](O)[C@H]1O)[C@H]1CC[C@]2(C)[C@@H]1[C@H](O)CC1[C@@]3(C)C[C@@H](O)[C@H](O[C@@H]4O[C@H](CO)[C@@H](O)[C@H](O)[C@H]4O[C@@H]4O[C@H](CO)[C@@H](O)[C@H](O)[C@H]4O)C(C)(C)C3CC[C@]12C (stereo partly drawn) [Compound I]	2	
CC1(C)C2CC[C@]3(C)C(C[C@@H](O)[C@@H]4[C@@H]([C@](C)(CCCO)O[C@@H]5O[C@H](CO)[C@@H](O)[C@H](O)[C@H]5O)CC[C@]43C)[C@@]2(C)C[C@@H](O)[C@@H]1O[C@@H]1O[C@H](CO)[C@@H](O)[C@H](O)[C@H]1O[C@@H]1O[C@H](CO)[C@@H](O)[C@H](O)[C@H]1O (stereo partly drawn) [Compound J]	2	
CC(C)(O)/C=C/C[C@](C)(O[C@@H]1O[C@H](CO)[C@@H](O)[C@H](O)[C@H]1O)[C@H]1CC[C@]2(C)C1[C@H](O)CC1[C@@]3(C)C[C@@H](O)[C@H](O[C@@H]4O[C@H](CO)[C@@H](O)[C@H](O)[C@H]4O[C@@H]4O[C@H](CO)[C@@H](O)[C@H](O)[C@H]4O)C(C)(C)C3CC[C@]12C (stereo partly drawn) [Compound D]	3	
CC(C)(/C=C/C[C@@](C)(O[C@@H]1O[C@H](CO)[C@@H](O)[C@H](O)[C@H]1O)[C@H]1CC[C@]2(C)[C@@H]1[C@H](O)C[C@@H]1[C@@]3(C)C[C@@H](O)[C@H](O[C@@H]4O[C@H](CO)[C@@H](O)[C@H](O)[C@H]4O[C@@H]4O[C@H](CO)[C@@H](O)[C@H](O)[C@H]4O)C(C)(C)[C@@H]3CC[C@]12C)OO (stereo in doubt) [Compound E]	3	
CC(CO)C(=O)CC[C@](C)(O[C@@H]1O[C@H](CO)[C@@H](O)[C@H](O)[C@H]1O)[C@H]1CC[C@]2(C)[C@@H]1[C@H](O)CC1[C@@]3(C)C[C@@H](O)[C@H](O[C@@H]4O[C@H](CO)[C@@H](O)[C@H](O)[C@H]4O[C@@H]4O[C@H](CO)[C@@H](O)[C@H](O)[C@H]4O)C(C)(C)C3CC[C@]12C (stereo partly drawn) [Compound K]	3	
C=C(C)C(CC[C@](C)(O[C@@H]1O[C@H](CO[C@@H]2OC[C@@H](O)[C@H](O)[C@H]2O)[C@@H](O)[C@H](O)[C@H]1O)[C@H]1CC[C@]2(C)[C@@H]1[C@H](O)CC1[C@@]3(C)C[C@@H](O)[C@H](O[C@@H]4O[C@H](CO)[C@@H](O)[C@H](O)[C@H]4O[C@@H]4O[C@H](CO)[C@@H](O)[C@H](O)[C@H]4O)C(C)(C)C3CC[C@]12C)OO (stereo partly drawn) [Compound C]	2	
CC(CO)C(=O)CC[C@](C)(O[C@@H]1O[C@H](CO)[C@@H](O)[C@H](O)[C@H]1O)[C@H]1CC[C@]2(C)[C@@H]1[C@H](O)CC1[C@@]3(C)C[C@@H](O)[C@H](O[C@@H]4O[C@H](CO)[C@@H](O)[C@H](O)[C@H]4O[C@@H]4O[C@H](CO)[C@@H](O)[C@H](O)[C@H]4O)C(C)(C)C3CC[C@]12C (stereo partly drawn) [Compound L]	2	
CC(C)=CCC[C@](C)(O[C@@H]1O[C@H](CO)[C@@H](O)[C@H](O)[C@H]1O)[C@H]1CC[C@]2(C)[C@@H]1[C@H](O)CC1[C@@]3(C)C[C@@H](O)[C@H](O[C@@H]4O[C@H](CO)[C@@H](O)[C@H](O)[C@H]4O[C@@H]4O[C@H](CO)[C@@H](O)[C@H](O)[C@H]4O)C(C)(C)C3CC[C@]12C (stereo partly drawn) [Compound B]	3	Slightly bitter
